Laboratory results: a compilation of properties of binary mixtures (doi:10.1007/s10953-011-9788-x)

Assay: xn = mol fraction of the nth substance listed
Details: 101 kPa

## CCCC[n+]1ccn(C)c1.N[C@@H](CCC(=O)O)C(=O)[O-] + CO
298.15 K, x2 = 0.1087
  viscosity: 59.8 mPa·s
298.15 K, x2 = 0.4003
  viscosity: 24.6 mPa·s
298.15 K, x2 = 0.4998
  viscosity: 16.4 mPa·s
298.15 K, x2 = 0.6002
  viscosity: 9.69 mPa·s
298.15 K, x2 = 0.8001
  viscosity: 2.31 mPa·s
303.15 K, x2 = 0.1087
  viscosity: 49.9 mPa·s
303.15 K, x2 = 0.2002
  viscosity: 39.6 mPa·s
303.15 K, x2 = 0.2995
  viscosity: 30.3 mPa·s
303.15 K, x2 = 0.4003
  viscosity: 22.2 mPa·s
303.15 K, x2 = 0.4998
  viscosity: 15.3 mPa·s
303.15 K, x2 = 0.7
  viscosity: 5.48 mPa·s
303.15 K, x2 = 0.8001
  viscosity: 2.82 mPa·s
303.15 K, x2 = 0.9
  viscosity: 1.48 mPa·s
308.15 K, x2 = 0.1087
  viscosity: 39.1 mPa·s
308.15 K, x2 = 0.2002
  viscosity: 31.2 mPa·s
308.15 K, x2 = 0.2995
  viscosity: 24.1 mPa·s
308.15 K, x2 = 0.4003
  viscosity: 18.1 mPa·s
308.15 K, x2 = 0.4998
  viscosity: 12.9 mPa·s
308.15 K, x2 = 0.7
  viscosity: 5.2 mPa·s
308.15 K, x2 = 0.9
  viscosity: 1.33 mPa·s
313.15 K, x2 = 0.1087
  viscosity: 31.6 mPa·s
313.15 K, x2 = 0.2995
  viscosity: 20 mPa·s
313.15 K, x2 = 0.4003
  viscosity: 15 mPa·s
313.15 K, x2 = 0.4998
  viscosity: 10.8 mPa·s
313.15 K, x2 = 0.6002
  viscosity: 7.3 mPa·s
313.15 K, x2 = 0.8001
  viscosity: 2.54 mPa·s
313.15 K, x2 = 0.9
  viscosity: 1.24 mPa·s
